# Results published in patent US11970499B1, “Pyrazolo[1,5-c]pyrimidine compounds as CK2 inhibitors” (KING FAISAL UNIVERSITY, priority 2023, dated 2024).
# Columns and labels:
# HCT116 (colon) = experiment: MTT in vitro cytotoxic activity assay, HCT116; type: cell-based; conditions: Homo sapiens, HCT-116; HCT116 cells, exposed for 96 hours; read-out: Cytotoxicity activity IC50, HCT116 (colon)
# Procedure: (§1) Compounds 1-20 were screened for their in vitro cytotoxic activity utilizing a 3-(4,5-dimethyl-thiazol-2-yl)-2,5-diphenyltetrazolium bromide (MTT) assay against selected cancer human cell lines consisting of PC3 (prostate), HCT 116 (colon), A375 (melanoma), H1299 (lung), MIAPaCa-2 (pancreas), HL60 (leukemia), MCF7 (breast), MDA-MB-231 (breast) (T. Mosmann, J. Immunol. Meth., 1983, 65, 55-63). The cells were cultured at 37° C. in RMPI1640 medium supplemented with 10% fetal bovine serum, 50 IU/mL penicillin, and 50 μg/mL streptomycin in a 5% CO2 incubator. All cells were sub-cultured 3 times/week by trypsinisation. Viable cells were seeded and allowed to adhere for 12 h before a test drug was added in 96-well plates at an initial density of 1.0×10^5 cells/mL. Tumor cell lines were separately exposed to various concentrations of the tested compounds followed by incubation at a temperature of 37° C. during 96 hours inside a medium of fresh RMPI 1640. Cells were subsequently incubated at 37° C. using MTT at 0.5 mg/mL during 4 hours. After removal of supernatant, formazan crystals were dissolved in isopropanol and the optical density was measured at 570 nm. CX-4945 was used as a positive control.
# H1299 (lung) = experiment: MTT in vitro cytotoxic activity assay, H1299; type: cell-based; conditions: Homo sapiens, NCI-H1299; H1299 cells, exposed for 96 hours; read-out: Cytotoxicity activity IC50, H1299 (lung)
# Procedure: as §1
# HL60 (leukemia) = experiment: MTT in vitro cytotoxic activity assay, HL60; type: cell-based; conditions: Homo sapiens, HL-60; HL60 cells, exposed for 96 hours; read-out: Cytotoxicity activity IC50, HL60 (leukemia)
# Procedure: as §1
# MCF7 (breast) = experiment: MTT in vitro cytotoxic activity assay, MCF7; type: cell-based; conditions: Homo sapiens; MCF7 cells, exposed for 96 hours; read-out: Cytotoxicity activity IC50, MCF7 (breast)
# Procedure: as §1
# recombinant human CK2 = target: T1, recombinant human CK2 (Homo sapiens, UniProt P68400); experiment: CK2 Kinase Assay (33P-ATP, substrate peptide RRRDDDSDDD); type: biochemical; conditions: recombinant human CK2 holoenzyme, final ATP 15 μM, 10 min at 30° C.; read-out: protein kinase CK2 activity IC50
# T1 construct: purchased Millipore
# T1 sequence (P68400 whole entry): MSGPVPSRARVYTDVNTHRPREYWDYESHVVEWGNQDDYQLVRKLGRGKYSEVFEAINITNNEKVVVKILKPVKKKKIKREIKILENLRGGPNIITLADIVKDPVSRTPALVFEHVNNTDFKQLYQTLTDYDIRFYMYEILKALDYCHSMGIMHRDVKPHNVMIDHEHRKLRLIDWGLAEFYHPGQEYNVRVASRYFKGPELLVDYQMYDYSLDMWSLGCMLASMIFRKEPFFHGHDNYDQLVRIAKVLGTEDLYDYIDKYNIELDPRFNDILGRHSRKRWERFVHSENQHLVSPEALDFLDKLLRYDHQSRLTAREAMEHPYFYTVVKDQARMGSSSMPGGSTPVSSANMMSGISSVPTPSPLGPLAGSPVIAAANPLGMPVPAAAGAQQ
# T1 sequence (P67870 whole entry partner): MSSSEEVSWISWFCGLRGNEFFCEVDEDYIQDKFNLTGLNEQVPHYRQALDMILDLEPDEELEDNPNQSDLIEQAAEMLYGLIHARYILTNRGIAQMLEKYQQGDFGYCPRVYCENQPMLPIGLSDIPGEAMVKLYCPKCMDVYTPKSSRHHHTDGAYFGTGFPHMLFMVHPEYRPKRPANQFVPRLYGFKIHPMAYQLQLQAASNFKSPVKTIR
# Procedure: CK2 Kinase Assay was conducted using the protocol as described in Pierre F. et al; J. Med. Chem. 2011, 54, 635-654. The tested compounds in aqueous solution were added at a volume of 10 μL to a reaction mixture comprising 10 μL of assay dilution buffer (ADB; 20 mM MOPS, pH 7.2, 25 mM β-glycerol phosphate, 5 mM EGTA, 1 mM sodium orthovanadate, and 1 mM dithiothreitol), 10 μL of substrate peptide (RRRDDDSDDD, dissolved in ADB at a concentration of 1 mM), 10 μL of recombinant human CK2 (RRββ-holoenzyme, 25 ng dissolved in ADB; Millipore). Reactions were initiated by the addition of 10 μL of ATP solution (90% 75 mMMgCl2, 75 sM ATP (final ATP concentration:15 μM) dissolved in ADB; 10% [γ-^33P] ATP (stock 1 mCi/100 μL; 3000 Ci/mmol (Perkin-Elmer) and maintained for 10 min at 30° C. The reactions were quenched with 100 μL of 0.75% phosphoric acid and then transferred to and filtered through a phosphor cellulose filter plate (Millipore). After washing each well five times with 0.75% phosphoric acid, the plate was dried under vacuum for 5 min and, following the addition of 15 μL of scintillation fluid to each well, the residual radioactivity was measured using a Wallac luminescence counter. The IC50 values were derived from eight concentrations of test inhibitors.
# MDA-MB-231 (breast) = experiment: MTT in vitro cytotoxic activity assay, MDA-MB-231; type: cell-based; conditions: Homo sapiens; MDA-MB-231 cells, exposed for 96 hours; read-out: Cytotoxicity activity IC50, MDA-MB-231 (breast)
# Procedure: as §1
# A375 (melanoma) = experiment: MTT in vitro cytotoxic activity assay, A375; type: cell-based; conditions: Homo sapiens, A-375; A375 cells, exposed for 96 hours; read-out: Cytotoxicity activity IC50, A375 (melanoma)
# Procedure: as §1
# PC3 (prostate) = experiment: MTT in vitro cytotoxic activity assay, PC3; type: cell-based; conditions: Homo sapiens, PC-3; PC3 cells, exposed for 96 hours; read-out: Cytotoxicity activity IC50, PC3 (prostate)
# Procedure: as §1
# MIAPaCa-2 (pancreas) = experiment: MTT in vitro cytotoxic activity assay, MIAPaCa-2; type: cell-based; conditions: Homo sapiens, MIA PaCa-2; MIAPaCa-2 cells, exposed for 96 hours; read-out: Cytotoxicity activity IC50, MIAPaCa-2 (pancreas)
# Procedure: as §1
structure (smiles),measurement,setting,value
"Clc1cccc(Nc2c(-c3ccncn3)nn3cnccc23)c1 [Compound 13, N-(3-chlorophenyl)-2-(pyrimidin-4-yl)pyrazolo[1,5-c]pyrimidin-3-amine]",IC50,HCT116 (colon),2100 nM
same,IC50,H1299 (lung),1600 nM
same,IC50,HL60 (leukemia),3900 nM
same,IC50,MCF7 (breast),5500 nM
same,IC50,recombinant human CK2,110 nM
same,IC50,MDA-MB-231 (breast),4600 nM
same,IC50,A375 (melanoma),3400 nM
same,IC50,PC3 (prostate),1200 nM
same,IC50,MIAPaCa-2 (pancreas),1500 nM
